Laboratory results as given in PubChem BioAssay AID2060901 (Molecular Pharmacology Branch, DTP, NCI, 2025).

System: 422866-222-R5-J1-PDC complex spheroids viability
Experiment: Anticancer human tumor 422866-222-R5-J1-PDC patient-derived pancreatic adenocarcinoma cell line growth inhibition [RAS]
Settings: for IC50: curve of first compound; for viability, T/C: stronger effect = lower value
Method in brief: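 Agents were tested in combination matrices in half-log decrements from a top concentration at or near clinical Cmax (10 microM if undetermined). Targets were multi-cell spheroids of tumour lines plus HUVEC and MSC stromal cells.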

[1] = second compound 0.000949 µM, first compound 0.0316 µM
[2] = second compound 0.000949 µM, first compound 0.1 µM
[3] = second compound 0.000949 µM, first compound 0.316 µM
[4] = second compound 0.000949 µM, first compound 1 µM
[5] = second compound 0.003 µM, first compound 0.0316 µM
[6] = second compound 0.003 µM, first compound 0.1 µM
[7] = second compound 0.003 µM, first compound 0.316 µM
[8] = second compound 0.003 µM, first compound 1 µM
[9] = second compound 0.00949 µM, first compound 0.0316 µM
[10] = second compound 0.00949 µM, first compound 0.1 µM
[11] = second compound 0.00949 µM, first compound 0.316 µM
[12] = second compound 0.00949 µM, first compound 1 µM
[13] = second compound 0.03 µM, first compound 0.0316 µM
[14] = second compound 0.03 µM, first compound 0.1 µM
[15] = second compound 0.03 µM, first compound 0.316 µM
[16] = second compound 0.03 µM, first compound 1 µM
[17] = second compound 0.0949 µM, first compound 0.0316 µM
[18] = second compound 0.0949 µM, first compound 0.1 µM
[19] = second compound 0.0949 µM, first compound 0.316 µM
[20] = second compound 0.0949 µM, first compound 1 µM
[21] = second compound 0.3 µM, first compound 0.0316 µM
[22] = second compound 0.3 µM, first compound 0.1 µM
[23] = second compound 0.3 µM, first compound 0.316 µM
[24] = second compound 0.3 µM, first compound 1 µM
[25] = second compound 0.000949 µM, first compound 0.00316 µM
[26] = second compound 0.000949 µM, first compound 0.01 µM
[27] = second compound 0.003 µM, first compound 0.00316 µM
[28] = second compound 0.003 µM, first compound 0.01 µM
[29] = second compound 0.00949 µM, first compound 0.00316 µM
[30] = second compound 0.00949 µM, first compound 0.01 µM
[31] = second compound 0.03 µM, first compound 0.00316 µM
[32] = second compound 0.03 µM, first compound 0.01 µM
[33] = second compound 0.0949 µM, first compound 0.00316 µM
[34] = second compound 0.0949 µM, first compound 0.01 µM
[35] = second compound 0.3 µM, first compound 0.00316 µM
[36] = second compound 0.3 µM, first compound 0.01 µM
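Also: spheroids exposed to compounds for 7 days.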
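For viability, T/C in this document: 100% = DMSO vehicle control viability.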

CC(Nc1ccc2c(c1)OCCn1cc(N3C(=O)OCC3C(F)F)nc1-2)C(N)=O (stereo unspecified) + CCn1c(-c2cccnc2C(C)OC)c2c3cc(ccc31)N1CCOC(CC(NC(=O)C(C(C)C)N(C)C(=O)C3(F)CCN(C(=O)C#CC(C)(C)N(C)C)CC3)C(=O)N3CCCC(N3)C(=O)OCC(C)(C)C2)C1
IC50 (second compound 0.000949 µM): < 31.6 nM | IC50 (second compound 0.003 µM): < 31.6 nM | IC50 (second compound 0.00949 µM): < 31.6 nM | IC50 (second compound 0.03 µM): < 31.6 nM | IC50 (second compound 0.0949 µM): < 31.6 nM | IC50 (second compound 0.3 µM): < 31.6 nM | viability, T/C [1]: 18.2% | viability, T/C [2]: 15.9% | viability, T/C [3]: 10.3% | viability, T/C [4]: 9.14% | viability, T/C (second compound 0.000949 µM, first compound 3.16 µM): 26.9% | viability, T/C (second compound 0.000949 µM, first compound 10 µM): 6.64% | viability, T/C [5]: 14.5% | viability, T/C [6]: 11.7% | viability, T/C [7]: 9.43% | viability, T/C [8]: 9.79% | viability, T/C (second compound 0.003 µM, first compound 3.16 µM): 19.8% | viability, T/C (second compound 0.003 µM, first compound 10 µM): 5.92% | viability, T/C [9]: 14.6% | viability, T/C [10]: 11.4% | viability, T/C [11]: 9.65% | viability, T/C [12]: 6.24% | viability, T/C (second compound 0.00949 µM, first compound 3.16 µM): 17.5% | viability, T/C (second compound 0.00949 µM, first compound 10 µM): 5.13% | viability, T/C [13]: 12.7% | viability, T/C [14]: 10.8% | viability, T/C [15]: 8.08% | viability, T/C [16]: 5.84% | viability, T/C (second compound 0.03 µM, first compound 3.16 µM): 16.7% | viability, T/C (second compound 0.03 µM, first compound 10 µM): 4.66% | viability, T/C [17]: 13.7% | viability, T/C [18]: 9.18% | viability, T/C [19]: 8.36% | viability, T/C [20]: 5.71% | viability, T/C (second compound 0.0949 µM, first compound 3.16 µM): 17.2% | viability, T/C (second compound 0.0949 µM, first compound 10 µM): 3.5% | viability, T/C [21]: 10.9% | viability, T/C [22]: 8.1% | viability, T/C [23]: 5.84% | viability, T/C [24]: 3.47% | viability, T/C (second compound 0.3 µM, first compound 3.16 µM): 10% | viability, T/C (second compound 0.3 µM, first compound 10 µM): 2.74%

CC(C)n1nc(-c2ccc3oc(N)nc3c2)c2c(N)ncnc21 + CCn1c(-c2cc(N3CCN(C)CC3)cnc2C(C)OC)c2c3cc(ccc31)-c1csc(n1)CC(NC(=O)C1CC1C)C(=O)N1CCCC(N1)C(=O)OCC(C)(C)C2
IC50 (second compound 0.000949 µM): < 0.316 nM | IC50 (second compound 0.003 µM): < 0.316 nM | IC50 (second compound 0.00949 µM): < 0.316 nM | IC50 (second compound 0.03 µM): < 0.316 nM | IC50 (second compound 0.0949 µM): < 0.316 nM | IC50 (second compound 0.3 µM): < 0.316 nM | viability, T/C (second compound 0.000949 µM, first compound 0.000316 µM): 35.2% | viability, T/C (second compound 0.000949 µM, first compound 0.001 µM): 28.7% | viability, T/C [25]: 24.4% | viability, T/C [26]: 24.5% | viability, T/C [1]: 19.7% | viability, T/C [2]: 21% | viability, T/C (second compound 0.003 µM, first compound 0.000316 µM): 24.4% | viability, T/C (second compound 0.003 µM, first compound 0.001 µM): 22.4% | viability, T/C [27]: 19.5% | viability, T/C [28]: 17% | viability, T/C [5]: 14.3% | viability, T/C [6]: 14.4% | viability, T/C (second compound 0.00949 µM, first compound 0.000316 µM): 22.5% | viability, T/C (second compound 0.00949 µM, first compound 0.001 µM): 16.5% | viability, T/C [29]: 17.8% | viability, T/C [30]: 14.2% | viability, T/C [9]: 13.8% | viability, T/C [10]: 11.2% | viability, T/C (second compound 0.03 µM, first compound 0.000316 µM): 19.3% | viability, T/C (second compound 0.03 µM, first compound 0.001 µM): 16.1% | viability, T/C [31]: 19.1% | viability, T/C [32]: 15.7% | viability, T/C [13]: 11.6% | viability, T/C [14]: 8.47% | viability, T/C (second compound 0.0949 µM, first compound 0.000316 µM): 17.7% | viability, T/C (second compound 0.0949 µM, first compound 0.001 µM): 20.1% | viability, T/C [33]: 18.3% | viability, T/C [34]: 14.2% | viability, T/C [17]: 12.2% | viability, T/C [18]: 10.9% | viability, T/C (second compound 0.3 µM, first compound 0.000316 µM): 19.7% | viability, T/C (second compound 0.3 µM, first compound 0.001 µM): 21.3% | viability, T/C [35]: 20.5% | viability, T/C [36]: 16.4% | viability, T/C [21]: 14.5% | viability, T/C [22]: 10.9%

O=C(c1ccc(F)c(F)c1Nc1ccc(I)cc1F)N1CC(O)([C@@H]2CCCCN2)C1 + CCn1c(-c2cc(N3CCN(C)CC3)cnc2C(C)OC)c2c3cc(ccc31)-c1csc(n1)CC(NC(=O)C1CC1C)C(=O)N1CCCC(N1)C(=O)OCC(C)(C)C2
IC50 (second compound 0.000949 µM): < 3.16 nM | IC50 (second compound 0.003 µM): < 3.16 nM | IC50 (second compound 0.00949 µM): < 3.16 nM | IC50 (second compound 0.03 µM): < 3.16 nM | IC50 (second compound 0.0949 µM): < 3.16 nM | IC50 (second compound 0.3 µM): < 3.16 nM | viability, T/C [25]: 30.9% | viability, T/C [26]: 27.3% | viability, T/C [1]: 21.8% | viability, T/C [2]: 20.4% | viability, T/C [3]: 15% | viability, T/C [4]: 14.4% | viability, T/C [27]: 22.9% | viability, T/C [28]: 19.1% | viability, T/C [5]: 16.2% | viability, T/C [6]: 13.3% | viability, T/C [7]: 13.4% | viability, T/C [8]: 15.1% | viability, T/C [29]: 16% | viability, T/C [30]: 14.8% | viability, T/C [9]: 14.5% | viability, T/C [10]: 11.9% | viability, T/C [11]: 11.9% | viability, T/C [12]: 13.6% | viability, T/C [31]: 14.3% | viability, T/C [32]: 13.4% | viability, T/C [13]: 13.2% | viability, T/C [14]: 13.8% | viability, T/C [15]: 13.9% | viability, T/C [16]: 14.9% | viability, T/C [33]: 15.2% | viability, T/C [34]: 16% | viability, T/C [17]: 13.4% | viability, T/C [18]: 13.8% | viability, T/C [19]: 14.5% | viability, T/C [20]: 15.3% | viability, T/C [35]: 16.7% | viability, T/C [36]: 14.9% | viability, T/C [21]: 15% | viability, T/C [22]: 15.1% | viability, T/C [23]: 15.7% | viability, T/C [24]: 15.6%
